Where two headings read alike, the source gives them in different places.
How the values were obtained:
[1] = format: physicochemical
Septoria tritici = assay: In vivo preventive test on Septoria tritici (leaf spot on wheat); settings: 500 ppm; wheat plants sprayed 24 hours before contamination; grading 21 to 28 days after contamination vs control plants
Description: Wheat plants (“Scipion” variety), sown in starter cups on a 50/50 peat soil-pozzolana substrate and grown at 22° C. (12 h)/20° C. (12 h), are treated at the 1-leaf stage (10 cm height) by spraying with the active ingredient prepared as described above. Plants, used as controls, are treated with the mixture of acetone/tween/DMSO/water not containing the active material. After 24 hours, the plants are contaminated by spraying the leaves with an aqueous suspension of cryopreserved Septoria tritici spores (500 000 spores per ml). […] Grading (% of efficacy) is carried out 21 to 28 days after the contamination, in comparison with the control plants.

Botrytis cinerea = assay: In vivo preventive test on Botrytis cinerea (grey mould); settings: 500 ppm; gherkin plants sprayed 24 hours before contamination; grading 4-5 days after contamination vs control plants
Description: Gherkin plants (“Vert petit de Paris” variety), sown in starter cups on a 50/50 peat soil-pozzolana substrate and grown at 24° C., are treated at the Z11 cotyledon stage by spraying with the active ingredient prepared as described above. Plants, used as controls, are treated with the mixture of acetone/tween/DMSO/water not containing the active material. After 24 hours, the plants are contaminated by spraying the cotyledons with an aqueous suspension of cryopreserved Botrytis cinerea spores (50 000 spores per ml). The spores are suspended in a nutrient solution composed of 10 g/L of PDB, 50 g/L of D-Fructose, 2 g/L of NH4NO3 and 1 g/L of KH2PO4. The contaminated gherkin plants are incubated at 17° C. and at 80% relative humidity. Grading (% of efficacy) is carried out 4-5 days after the contamination, in comparison with the control plants.

[2] = HPLC on reversed phase columns, method [a]: pH 2.7, 0.1% formic acid in water / acetonitrile, linear gradient 10% to 95% acetonitrile
[3] = method [a]: HPLC/LC-MS on reversed phase at pH 2.7, 0.1% formic acid in water / acetonitrile, linear gradient 10% to 95% acetonitrile
[4] = method [a]: HPLC/LC-MS on reversed phase at pH 2.7, 0.1% formic acid in water / acetonitrile, gradient 10% to 95% acetonitrile

| SMILES | log P [1, 2] | % of efficacy (protection) (Septoria tritici) [%] | log P [1, 3] | further results |
| --- | --- | --- | --- | --- |
| CCOCCCNC(=O)C1(C)CC(c2cc(Cl)c3ncc(Br)cc3c2)=NO1 (stereo not shown) [compound 542] | 3.25[a] | 83 | – | % of efficacy (protection) (Botrytis cinerea): 100% |
| C#Cc1cnc2ccc(C3=NOC(C)(C(=O)NCc4cnc(C)cn4)C3)cc2c1 (stereo not shown) [compound 167] | – | 100 | 1.98^[a] | % of efficacy (protection) (Botrytis cinerea): 100% |
| C#Cc1cnc2ccc(C3=NOC(C)(C(=O)NCc4cc(Cl)cc(Cl)c4)C3)cc2c1 (stereo not shown) [compound 193] | – | – | 3.71^[a] | % of efficacy (protection) (Botrytis cinerea): 74% |
| CC1(C(=O)NCC2CCCO2)CC(c2ccc3ncc(Br)cc3c2)=NO1 (stereo not shown) [compound 130] | – | – | 2.45^[a] | % of efficacy (protection) (Botrytis cinerea): 89% |
| CC1(C(=O)NCc2cnn(-c3ccccc3)c2)CC(c2ccc3ncc(Br)cc3c2)=NO1 (stereo not shown) [compound 202] | – | – | 3.11^[a] | % of efficacy (protection) (Botrytis cinerea): 87% |
| CCn1cc(CNC(=O)C2(C)CC(c3ccc4ncc(SC)cc4c3)=NO2)c(C)n1 (stereo not shown) [compound 147] | – | – | 2.09^[a] | % of efficacy (protection) (Botrytis cinerea): 88% |
| C=C(C)C1(C(=O)NC(C)C)CC(c2ccc3ncc(Br)cc3c2)=NO1 (stereo not shown) [compound 517] | 3.41[a] | – | – | % of efficacy (protection) (Botrytis cinerea): 80% |
| CC(NC(=O)C1(C)CC(c2ccc3ncc(Br)cc3c2)=NO1)c1ccccc1Cl (stereo not shown) [compound 294] | 3.85[a] | 70 | – | – |
| CCn1cc(CNC(=O)C2(C3CC3)CC(c3ccc4ncc(Br)cc4c3)=NO2)c(C)n1 (stereo not shown) [compound 268] | 2.73[a] | – | – | % of efficacy (protection) (Botrytis cinerea): 93% |
| Cc1ccc(CNC(=O)C2(C)CC(c3ccc4ncc(Br)cc4c3)=NO2)n1C (stereo not shown) [compound 152] | – | 71 | 3.21^[a] | – |
| CC1(C(=O)NCC2CCOC2)CC(c2ccc3ncc(Br)cc3c2)=NO1 (stereo not shown) [compound 127] | – | – | 2.2^[a] | % of efficacy (protection) (Botrytis cinerea): 80% |
| CCC(NC(=O)C1(C)CC(c2ccc3ncc(Br)cc3c2)=NO1)c1cn(CC)nc1C (stereo not shown) [compound 311] | 2.77[a] | 100 | – | – |
| C#Cc1cnc2ccc(C3=NOC(C)(C(=O)NC(C)C4CC4)C3)cc2c1 (stereo not shown) [compound 330] | 2.78[a] | 100 | – | – |
| CCOCCCNC(=O)C1(C(C)O)CC(c2ccc3ncc(Br)cc3c2)=NO1 (stereo not shown) [compound 560] | 2.27[a] | 97 | – | – |
| C#Cc1cnc2ccc(C3=NOC(C)(C(=O)NCC4CCC(=O)N4C)C3)cc2c1 (stereo not shown) [compound 213] | – | 97 | 1.65^[a] | – |
| C#Cc1cc2cc(C3=NOC(C)(C(=O)NCc4cn(CC)nc4C)C3)ccc2nc1C#N (stereo not shown) [compound 491] | – | 75 | – | log P [1, 4]: 2.39[a] |
| CCn1cc(CNC(=O)C2(C)CC(c3ccc4nc(Cl)c(Br)cc4c3)=NO2)c(C)n1 (stereo not shown) [compound 286] | 3.12[a] | 92 | – | – |
| CC1(C(=O)NC2CCOCC2)CC(c2ccc3ncc(Br)cc3c2)=NO1 (stereo not shown) [compound 307] | 2.27[a] | 100 | – | – |
| CC(C)NC(=O)C1(CF)CC(c2ccc3ncc(Br)cc3c2)=NO1 (stereo not shown) [compound 76] | – | 75 | 2.46^[a] | – |
| Cn1ccc(NC(=O)C2(C(F)(F)F)CC(c3ccc4ncc(Br)cc4c3)=NO2)c1 (stereo not shown) [compound 108] | – | 75 | 3.5^[a] | – |
| CC(C)c1noc(C(C)NC(=O)C2(C)CC(c3ccc4ncc(Br)cc4c3)=NO2)n1 (stereo not shown) [compound 331] | 3.23[a] | 83 | – | – |
| C#Cc1cnc2ccc(C3=NOC(CC)(C(=S)NCc4cn(CC)nc4C)C3)cc2c1 (stereo not shown) [compound 507] | – | 97 | – | log P [1, 4]: 3.31[a] |

| SMILES | log P [1, 2] | % of efficacy (protection) (Septoria tritici) [%] | log P [1, 3] | further results |
| --- | --- | --- | --- | --- |
| C#Cc1cnc2ccc(C3=NOC(C)(C(=O)NC(c4cccc(Cl)c4)C(F)(F)F)C3)cc2c1 (stereo not shown) [compound 357] | 3.94[a] | 78 | – | – |
| C#Cc1cnc2ccc(C3=NOC(C)(C(=O)NC(C)(C)C)C3)cc2c1 (stereo not shown) [compound 322] | 3.00[a] | 98 | – | – |
| C#Cc1cnc2ccc(C3=NOC(C)(C(=O)NCC4CCOc5ccccc54)C3)cc2c1 (stereo not shown) [compound 223] | – | 71 | 3.11^[a] | – |
| C#Cc1cnc2ccc(C3=NOC(C)(C(=O)NC(C)c4nc(C(C)C)no4)C3)cc2c1 (stereo not shown) [compound 329] | 2.94[a] | 100 | – | – |
| C#Cc1cnc2ccc(C3=NOC(C)(C(=O)NC(CN4CCCC4)C4CC4)C3)cc2c1 (stereo not shown) [compound 361] | 1.37[a] | 78 | – | – |
| CC#Cc1cnc2ccc(C3=NOC(C)(C(=O)NCc4cn(CC)nc4C)C3)cc2c1 (racemic) [compound 378] | – | 97 | – | log P [1, 4]: 2.35[a] |
| C#Cc1cnc2ccc(C3=NOC(C)(C(=O)NCc4ccc5[nH]ccc5c4)C3)cc2c1 (stereo not shown) [compound 115] | – | 75 | 2.63^[a] | – |
| CCOCCCNC(=O)C1(C)CC(c2cc3cc(Br)cnc3c(F)c2F)=NO1 (stereo not shown) [compound 14] | – | – | – | Log P ([1]; method [a]: HPLC/LC-MS on reversed phase at pH 2.7, 0.1% formic acid in water and acetonitrile, linear gradient 10% to 95% acetonitrile): 2.98^[a]; % of efficacy (protection) (Botrytis cinerea): 100% |
| CCn1cc(CNC(=O)C2(Cc3ccccc3)CC(c3ccc4ncc(Br)cc4c3)=NO2)c(C)n1 (stereo not shown) [compound 56] | – | 70 | 3.23^[a] | – |
| CCn1cc(CNC(=O)C2(C(C)C)CC(c3ccc4ncc(Br)cc4c3)=NO2)c(C)n1 (stereo not shown) [compound 61] | – | 80 | 2.94^[a] | – |
| CCn1cc(CNC(=O)C2(C)CC(c3cc4cc(Br)cnc4c(OC)c3OC)=NO2)c(C)n1 (stereo not shown) [compound 30] | – | 100 | 2.42^[a] | – |
| COC(CNC(=O)C1(C)CC(c2ccc3ncc(Br)cc3c2)=NO1)OC (stereo not shown) [compound 290] | 2.39[a] | 96 | – | – |
| C#Cc1cc2cc(C3=NOC(C)(C(=O)NC(C)C)C3)ccc2nc1OC (stereo not shown) [compound 133] | – | 100 | 3.09^[a] | – |
| CC1(C(=O)NCc2ccccc2)CC(c2ccc3ncc(Br)cc3c2)=NO1 (stereo not shown) [compound 91] | – | 75 | 3.21^[a] | – |
| COC1(C(=O)NC(C)C)CC(c2ccc3ncc(Br)cc3c2)=NO1 (single isomer, unassigned) [compound 285] | 2.57[a] | 100 | – | – |
| CCOc1cnc2ccc(C3=NOC(C)(C(=O)NCc4cn(CC)nc4C)C3)cc2c1 (stereo not shown) [compound 417] | – | 100 | – | log P [1, 4]: 2.09[a] |
| C#Cc1cnc2ccc(C3=NOC(OC)(C(=O)N(OC)C(C)CC)C3)cc2c1 (stereo not shown) [compound 466] | – | 97 | – | log P [1, 4]: 3.31[a] |
| C#Cc1cnc2ccc(C3=NOC(OC)(C(=O)N(C(C)C)C4CC4)C3)cc2c1 (stereo not shown) [compound 467] | – | 97 | – | log P [1, 4]: 3.35[a] |
| C#Cc1cnc2ccc(C3=NOC(C)(C(=O)NCc4cn[nH]c4-c4cccs4)C3)cc2c1 (stereo not shown) [compound 192] | – | 71 | 2.25^[a] | – |
| C#Cc1cnc2ccc(C3=NOC(C)(C(=S)NCc4cnn(C)c4C)C3)cc2c1 (racemic) [compound 443] | – | 88 | – | log P [1, 4]: 2.76[a] |
| CC(C)NC(=O)C1(C)CC(c2ccc3nc(Cl)c(Br)cc3c2)=NO1 (stereo not shown) [compound 287] | 3.46[a] | 83 | – | – |
